# Article PMC12316891, “A bottom-up approach to find lead compounds in expansive chemical spaces” (Communications Chemistry, 2025)
# Where two headings read alike, the source gives them in different places.
# Legend:
# BRD4 (BD1) [1] = molecular target: T1, BRD4 (BD1) (Homo sapiens, UniProt O60885); test: Competitive HTRF TR-FRET binding assay (displacement of acetylated histone H4 peptide)
# T1 construct: A pET28 plasmid containing residues 44–168 of BRD4 (BD1), a 6xHis tag, a TEV protease cleavage site; 6xHis (N, cleaved yes); made in house; host or cells: E. coli Rosetta (D3)
# Procedure: To further quantitatively characterize the DSF/SPR hits compounds obtained in the single-dose screenings, we selected HTRF TR-FRET. Specifically, we employed a competitive HTRF TR-FRET experiment to measure the compound’s capacity to displace an acetylated peptide from the binding site of BRD4 (BD1). For each molecule, a 16-point concentration curve was titrated against the peptide-BRD (BD1) complex and incubated for 1.5 h. A compound was considered a positive binder if we could fit its titration curve to a sigmoidal curve to determine its IC50. […] Compound screening was carried out in 384-well, white, round-bottom, small-volume plates (CORNING) in a final volume of 20 µL of 50 mM HEPES (pH 7.4), 50 mM NaCl, 400 mM KF, 0.5 mM CHAPS, and 0.05% BSA. […] Then, the labeled anti-His6-XL665 antibody (CisBio) (10 nM) was added to the mixture and incubated for 15 min, before the Eu3+ cryptate-conjugated streptavidin (2 nM) (CisBio) was added and incubated for 15 min. All incubations were performed at room temperature. […] Titration of (+)−JQ1 was used as a positive control for each experiment.
# BRD4 (BD1) [2] = molecular target: T1, BRD4 (BD1); test: Differential scanning fluorimetry (DSF) single-dose thermal shift screening; format: binding; settings: DSF, compound 10 µM, BRD4 (BD1) 2 µM, n = 3, decimal comma; for ΔTm at 10 µM: read-out: ΔTm ºC at [10 µM]
# His6-BRD4 (BD1) = molecular target: T2, His6-BRD4 (BD1) (Homo sapiens, UniProt O60885); test: Surface plasmon resonance (SPR) single-dose screening; format: binding; set-up: key to SPR RESULT: Positive: compounds were considered as SPR hits also when their average signal was further than two standard deviations apart from the average signal of the blank samples (1% DMSO); settings: for RUs at [10 µM]: SPR, compound 10 µM, 1% DMSO, n = 2, decimal comma; for SPR RESULT: single dose 10 µM, n = 2
# T2 construct: A pET28 plasmid containing residues 44–168 of BRD4 (BD1), a 6xHis tag, a TEV protease cleavage site; made in house; host or cells: E. coli Rosetta (D3)
# [3] = 16-point titration 0.1 nM to 10 µM, n = 2, Negative = curve could not be fitted to a sigmoidal curve
# [4] = 16-point titration 0.1 nM to 10 µM, n = 2, Negative = curve could not be fitted to a sigmoidal curve, read-out: TR-FRET IC50
Structure (SMILES),TR-FRET IC50 (nM) (BRD4 (BD1) [1]; [3]),ΔTm at 10 µM (BRD4 (BD1) [2]) [°C],RUs at [10 µM] (His6-BRD4 (BD1)),SPR RESULT (His6-BRD4 (BD1)),IC50 (BRD4 (BD1) [1]; [4]) [nM],IC50 (BRD4 (BD1) [1]) [nM],ΔTm ºC at [10 µM] (BRD4 (BD1) [2])
"COC(C)CC(=O)N1CCC(C2(O)CCN(C(=O)c3sc4nnc(C)c(C)c4c3N)C2)CC1 (stereo not shown) [Compound 39, COC(C)CC(=O)N1CCC(CC1)C2(O)CCN(C2)C(=O)C=3SC=4N=NC(C)=C(C)C4C3N]",–,1.12,"11,34 ± 6,3 RUs",Negative,78.9,–,–
"COc1ccc(-n2c(C)nnc2SCC(=O)NCc2cc(C)nc(C)c2)cc1 [Compound 44, COC=1C=CC(=CC1)N2C(C)=NN=C2SCC(=O)NCC=3C=C(C)N=C(C)C3]",–,1.68,"17,34 ± 14,82 RUs",Negative,5.83,–,–
"COc1ccc(-n2c(C)nnc2SCC(=O)N2CC3(CCN(C)CC3)C2)cc1 [Compound 45, COC=1C=CC(=CC1)N2C(C)=NN=C2SCC(=O)N3CC4(C3)CCN(C)CC4]",Negative,2.18,"9,8 ± 3,73 RUs",Negative,–,–,–
"COc1ccc(-c2cc(NC(=O)C(=O)NC(C)c3nnc4ncccn34)ccc2OC)cc1 (stereo not shown) [Compound 47, COC=1C=CC(=CC1)C=2C=C(NC(=O)C(=O)NC(C)C3=NN=C4N=CC=CN34)C=CC2OC]",–,1.25,"25,41 ± 18,52 RUs",Negative,256,–,–
"COc1ccc(-n2c(C)nnc2SCC(=O)N(c2ccccc2)C2CC2)cc1 [Compound 48, COC=1C=CC(=CC1)N2C(C)=NN=C2SCC(=O)N(C3CC3)C=4C=CC=CC4]",–,2.35,"4,63 ± 0,03 RUs",Negative,53.2,–,–
"COc1ccc(-n2c(C)nnc2SCC(=O)NC2CCC3(CNC3)C2)cc1 (stereo not shown) [Compound 49, COC=1C=CC(=CC1)N2C(C)=NN=C2SCC(=O)NC3CCC4(CNC4)C3]",–,2.73,"17,72 ± 5,47 RUs",Negative,105,–,–
"CNC(=O)c1ccc(-n2nc(Cn3cccn3)nc2-c2cn(C)c(=O)c3ccccc23)cc1 [Compound 50, CNC(=O)C=1C=CC(=CC1)N2N=C(CN3C=CC=N3)N=C2C4=CN(C)C(=O)C=5C=CC=CC45]",–,2.29,"10,43 ± 9,29 RUs",Negative,1130,–,–
"CN(C)S(=O)(=O)c1ccc(-n2nc(-c3cccnc3)nc2-c2cn(C)c(=O)c3ccccc23)cc1 [Compound 51, CN(C)S(=O)(=O)C=1C=CC(=CC1)N2N=C(N=C2C3=CN(C)C(=O)C=4C=CC=CC34)C=5C=CC=NC5]",–,3.61,"29,75 ± 5,31 RUs",Positive,39.3,–,–
"COc1ccc(-n2c(C)nnc2SCC(=O)NC2CCN(C(=O)c3cc(Cl)sc3Cl)CC2C)cc1 (stereo not shown) [Compound 52, COC=1C=CC(=CC1)N2C(C)=NN=C2SCC(=O)NC3CCN(CC3C)C(=O)C=4C=C(Cl)SC4Cl]",–,-0.23,"31,14 ± 2,8 RUs",Positive,266,–,–
"COc1ccc(-n2c(C)nnc2SCC(=O)Nc2ccc(C)c(Cl)c2Cl)cc1 [Compound 55, COC=1C=CC(=CC1)N2C(C)=NN=C2SCC(=O)NC=3C=CC(C)=C(Cl)C3Cl]",–,–,"11,56 ± 1,14 RUs",Positive,–,1020,"3,66 ± 0,12 ºC"
"COC1(CNC(=O)C2=C(Cl)CCCC2)CCN(C(=O)c2sc3nnc(C)c(C)c3c2N)CC1 [Compound 57, COC1(CNC(=O)C2=C(Cl)CCCC2)CCN(CC1)C(=O)C=3SC=4N=NC(C)=C(C)C4C3N]",Negative,0.48,"26,22 ± 6,56 RUs",Positive,–,–,–
"Cc1nnc2sc(C(=O)N3CCC4(CCC(NC(=O)Cc5csc(Cl)c5)CC4)CC3)c(N)c2c1C [Compound 60, CC=1N=NC=2SC(C(=O)N3CCC4(CCC(CC4)NC(=O)CC5=CSC(Cl)=C5)CC3)=C(N)C2C1C]",Negative,0.94,"48,37 ± 15,77 RUs",Positive,–,–,–
"COC1CC(CCC(=O)NC2CC3(CCN(C(=O)c4occc4Br)C3)Oc3ccccc32)C1 (stereo not shown) [Compound 62, COC1CC(CCC(=O)NC2CC3(CCN(C3)C(=O)C=4OC=CC4Br)OC=5C=CC=CC25)C1]",Negative,-0.15,"23,54 ± 4,84 RUs",Positive,–,–,–

# Now from value to compound, other results behind:
TR-FRET IC50 (nM) (BRD4 (BD1) [1]; [3]),ΔTm at 10 µM (BRD4 (BD1) [2]) [°C],RUs at [10 µM] (His6-BRD4 (BD1)),SPR RESULT (His6-BRD4 (BD1)),IC50 (BRD4 (BD1) [1]; [4]) [nM],Structure (SMILES),IC50 (BRD4 (BD1) [1]) [nM],ΔTm ºC at [10 µM] (BRD4 (BD1) [2])
Negative,0.25,"30,29 ± 13,03 RUs",Negative,–,"COc1ccc(CNc2ccc3ccn(C)c(=O)c3c2)cc1OCC(C)C [Compound 38, COC=1C=CC(CNC=2C=CC=3C=CN(C)C(=O)C3C2)=CC1OCC(C)C]",–,–
–,1.13,"9,46 ± 0,53 RUs",Positive,372,"CCCc1c(C(=O)N2CCOC(CNC(=O)c3cc(C)ccn3)C2)[nH]c(C)c1C(C)=O (stereo not shown) [Compound 40, CCCC1=C(NC(C)=C1C(=O)C)C(=O)N2CCOC(CNC(=O)C=3C=C(C)C=CN3)C2]",–,–
Negative,1.7,"1,13 ± 7,64 RUs",Negative,–,"Cc1nnnn1-c1cc(F)cc(C(=O)N2CCN(C(=O)C(=O)NCC3CC3)C(C(C)C)C2)c1 (stereo not shown) [Compound 41, CC(C)C1CN(CCN1C(=O)C(=O)NCC2CC2)C(=O)C=3C=C(F)C=C(C3)N4N=NN=C4C]",–,–
–,1.04,"34,2 ± 10,95 RUs",Positive,169,"Cn1cc(C(=O)Nc2ccc(OCc3cnccn3)cc2)c2ccccc2c1=O [Compound 42, CN1C=C(C(=O)NC=2C=CC(OCC=3C=NC=CN3)=CC2)C=4C=CC=CC4C1=O]",–,–
–,1.99,"32,1 ± 9,99 RUs",Positive,1590,"COc1cccc(-n2c(C)nnc2SCC(=O)Nc2ccc(C(F)F)cc2)c1 [Compound 43, COC=1C=CC=C(C1)N2C(C)=NN=C2SCC(=O)NC=3C=CC(=CC3)C(F)F]",–,–
–,2.47,"19,71 ± 0,01 RUs",Positive,240,"CC(NS(=O)(=O)c1cccc(-c2nnnn2C)c1)C1CCN(Cc2ccccc2)C1 (stereo not shown) [Compound 46, CC(NS(=O)(=O)C=1C=CC=C(C1)C2=NN=NN2C)C3CCN(CC=4C=CC=CC4)C3]",–,–
–,1.09,"28,62 ± 5,34 RUs",Positive,1040,"CN(C)C(=O)Sc1cc(NC(=O)c2cn(C)c(=O)c3ccccc23)ccc1Cl [Compound 53, CN(C)C(=O)SC=1C=C(NC(=O)C2=CN(C)C(=O)C=3C=CC=CC23)C=CC1Cl]",–,–
–,2.91,"17,03 ± 5,1 RUs",Negative,277,"CCCc1c(C(=O)N2CCC(Cc3cn(C4CC4)nn3)CC2)[nH]c(C)c1C(C)=O [Compound 54, CCCC1=C(NC(C)=C1C(=O)C)C(=O)N2CCC(CC3=CN(N=N3)C4CC4)CC2]",–,–
–,3.79,"10,07 ± 8,75 RUs",Negative,722,"CCn1nnc2cc(C(=O)N3CCC(c4nnc(CNC(=O)c5ccncn5)s4)CC3)ccc21 [Compound 56, CCN1N=NC=2C=C(C=CC12)C(=O)N3CCC(CC3)C4=NN=C(CNC(=O)C=5C=CN=CN5)S4]",–,–
–,2.28,"75,54 ± 39,86 RUs",Negative,511,"COc1cccc(-n2nc(-c3cscn3)nc2-c2cn(C)c(=O)c3ccccc23)c1 [Compound 58, COC=1C=CC=C(C1)N2N=C(N=C2C3=CN(C)C(=O)C=4C=CC=CC34)C5=CSC=N5]",–,–
Negative,4.12,"13,73 ± 9,32 RUs",Negative,–,"Cc1nnc2sc(C(=O)N(C)C3CN(C(=O)CCC(C)N(C)C)CC34CC4)c(N)c2c1C (stereo not shown) [Compound 59, CC(CCC(=O)N1CC(N(C)C(=O)C=2SC=3N=NC(C)=C(C)C3C2N)C4(CC4)C1)N(C)C]",–,–
–,0.49,"15,14 ± 5,89 RUs",Negative,79.4,"CCCc1c(C(=O)N2CCCC2Cn2cc(-c3cc(C)nc(C)c3)nn2)[nH]c(C)c1C(C)=O (stereo not shown) [Compound 61, CCCC1=C(NC(C)=C1C(=O)C)C(=O)N2CCCC2CN3C=C(N=N3)C=4C=C(C)N=C(C)C4]",–,–
Negative,0.7,"13,51 ± 3,27 RUs",Negative,–,"COC1(CNC(=O)c2nscc2Br)CN(C(=O)C2CCS(=O)(=O)N2)C1 (stereo not shown) [Compound 63, COC1(CNC(=O)C2=NSC=C2Br)CN(C1)C(=O)C3CCS(=O)(=O)N3]",–,–
Negative,0.1,"25,91 ± 0,65 RUs",Positive,–,"Cc1cc(C)n2nc(CC(=O)NCC(C)(C)Cn3cc(-c4sccc4C)nn3)nc2n1 [Compound 64, CC=1C=CSC1C2=CN(CC(C)(C)CNC(=O)CC=3N=C4N=C(C)C=C(C)N4N3)N=N2]",–,–
–,0.32,"7,82 ± 0,92 RUs",Negative,28.7,"CNC(=O)C1(C(=O)N[C@@H]2CCCC[C@H]2NC(=O)c2cnsn2)CCC1 [Compound 65, CNC(=O)C1(CCC1)C(=O)N[C@@H]2CCCC[C@H]2NC(=O)C=3C=NSN3]",–,–
